Source: ChEMBL document CHEMBL4043289, “Fragment-Based Drug Discovery of Inhibitors of Phosphopantetheine Adenylyltransferase from Gram-Negative Bacteria” (J Med Chem, 2018)
pIC50, pKd: −log10 of the molar value. ≈ marks a conversion by molar mass, not a printed value. Calls of active or inactive are those of the source. The rule behind the calls is not given here.

What was measured:
[1] = Inhibition of Escherichia coli C-terminal His-tagged PPAT expressed in Escherichia coli using 4'-phosphopantetheine as substrate preincubated for 5 mins followed by substrate and pyrophosphatase addition measured after 30 mins by malachite green reagent-based colorimetric method
Escherichia coli [2] = assay: Binding affinity to Escherichia coli C-terminal His-tagged PPAT expressed in Escherichia coli assessed as change in melting temperature by SYPRO orange dye-based DSF method
[3] = Inhibition of Pseudomonas aeruginosa C-terminal His-tagged PPAT expressed in Escherichia coli using 4'-phosphopantetheine as substrate preincubated for 5 mins followed by substrate and pyrophosphatase addition measured after 30 mins by malachite green reagent-based colorimetric method
[4] = Inhibition of Escherichia coli C-terminal His-tagged PPAT expressed in Escherichia coli using 10 times 4'-phosphopantetheine as substrate preincubated for 5 mins followed by substrate and pyrophosphatase addition measured after 30 mins by malachite green reagent-based colorimetric method
Escherichia coli [5] = assay: Ratio of IC50 for Escherichia coli C-terminal His-tagged PPAT expressed in Escherichia coli using 10 times 4'-phosphopantetheine as substrate to IC50 for Escherichia coli C-terminal His-tagged PPAT expressed in Escherichia coli using 4'-phosphopantetheine as substrate
[6] = Lipophilicity, log D of the compound at pH 7.4; assay type: physicochemical; conditions: buffer
[7] = Dissociation rate constant to Escherichia coli PPAT by SPR method
Escherichia coli [8] = assay: (§1) Binding affinity to Escherichia coli PPAT by SPR method
[9] = as §1
[10] = Solubility of the compound; assay type: physicochemical
Escherichia coli [11] = assay: Antibacterial activity against tolC deficient Escherichia coli BW25113 after 20 hrs by broth microdilution method; assay type: functional; conditions: for MIC: BW25113, 20 h
[12] = Selectivity ratio of IC50 for human PPAT to IC50 for Escherichia coli C-terminal His-tagged PPAT
[13] = molecular target: T1, Bifunctional coenzyme A synthase (Homo sapiens, UniProt Q13057); assay: Inhibition of human PPAT
T1 sequence (Q13057 whole entry): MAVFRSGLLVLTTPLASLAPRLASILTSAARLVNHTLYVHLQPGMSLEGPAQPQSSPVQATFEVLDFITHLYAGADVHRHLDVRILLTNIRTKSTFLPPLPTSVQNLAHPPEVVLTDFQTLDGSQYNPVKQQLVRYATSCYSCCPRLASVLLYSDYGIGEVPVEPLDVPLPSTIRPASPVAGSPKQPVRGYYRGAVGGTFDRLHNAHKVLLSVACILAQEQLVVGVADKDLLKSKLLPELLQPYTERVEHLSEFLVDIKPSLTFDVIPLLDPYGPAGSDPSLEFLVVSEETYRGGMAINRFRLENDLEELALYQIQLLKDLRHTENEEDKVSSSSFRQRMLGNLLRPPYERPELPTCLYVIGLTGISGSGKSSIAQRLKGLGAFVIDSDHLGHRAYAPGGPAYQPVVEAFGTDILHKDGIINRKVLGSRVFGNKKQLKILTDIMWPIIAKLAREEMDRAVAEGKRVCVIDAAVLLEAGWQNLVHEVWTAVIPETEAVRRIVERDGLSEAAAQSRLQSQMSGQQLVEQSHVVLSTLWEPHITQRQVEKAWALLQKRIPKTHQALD

Escherichia coli [14] = assay: Antibacterial activity against Escherichia coli ATCC 25922 after 20 hrs by broth microdilution method; assay type: functional
Escherichia coli [15] = assay: Inhibition of Escherichia coli C-terminal His-tagged PPAT expressed in Escherichia coli up to 500 uM using 4'-phosphopantetheine as substrate preincubated for 5 mins followed by substrate and pyrophosphatase addition measured after 30 mins by malachite green reagent-based colorimetric method
[16] = Inhibition of Staphylococcus aureus C-terminal His-tagged PPAT expressed in Escherichia coli using 4'-phosphopantetheine as substrate preincubated for 5 mins followed by substrate and pyrophosphatase addition measured after 30 mins by malachite green reagent-based colorimetric method
[17] = molecular target: T2, Bifunctional coenzyme A synthase (Homo sapiens) (UniProt Q13057); assay: Inhibition of human PPAT up to 500 uM
T2 sequence (whole entry): T1 sequence (Q13057 whole entry)

Escherichia coli [18] = assay: Inhibition of Escherichia coli C-terminal His-tagged PPAT H138L mutant using 4'-phosphopantetheine as substrate preincubated for 20 mins followed by substrate and pyrophosphatase addition by malachite green reagent-based assay
Escherichia coli [19] = assay: Inhibition of Escherichia coli C-terminal His-tagged PPAT V135I mutant using 4'-phosphopantetheine as substrate preincubated for 20 mins followed by substrate and pyrophosphatase addition by malachite green reagent-based assay
Escherichia coli [20] = assay: Selectivity ratio of IC50 for Escherichia coli C-terminal His-tagged PPAT M74L mutant to IC50 for Escherichia coli C-terminal His-tagged PPAT

| pIC50 [1] | pIC50 [3] | SMILES | other results |
| --- | --- | --- | --- |
| 3.79 |  | CC1(C)OC(=O)c2ccccc2[C@H]1n1cncc1C(F)F | ΔTm (Escherichia coli [2]): 3.8 °C |
| 5.96 | 5.77 | Cc1[nH]c2nc(N[C@H](C)c3cccc(Cl)c3)nn2c(=O)c1C |  |
| 3.58 |  | Nc1ncnc2ncn(Cc3cccc(Cl)c3)c12 | ΔTm (Escherichia coli [2]): 2.7 °C |
| 6.62 | 5.70 | Cc1cc(=O)n2nc(N[C@H](CCO)c3cccc(Cl)c3)nc2[nH]1 | pIC50 [4]: 6.36; Ratio IC50 (Escherichia coli [5]): 1.8 |
| 3.97 | 5.72 | CC(=O)N1CCC[C@H]1c1nc2c(O)cccc2[nH]1 |  |
| 3.63 |  | O=C(NCCCCCNC(=O)c1ccco1)c1ccco1 | ΔTm (Escherichia coli [2]): 2.9 °C |
| 2.97 |  | NCc1ccc2ccnc(N)c2c1 |  |
| 6.60 | 6.01 | Cc1cc(=O)n2nc(N[C@H](C)c3cccc(Cl)c3)nc2[nH]1 | logD [6]: 1.1; koff [7]: 0.0028 s⁻¹; Ka (Escherichia coli [8]): 0.16 ×10⁵ /M/s; pKd [9]: 6.77; pIC50 [4]: 6.04; Ratio IC50 (Escherichia coli [5]): 3.7; solubility [10]: 68 µg/mL (≈ 224 µM) |
| 3.40 | < 3.30 | C[C@@H](Nc1ccc2[nH]cnc2n1)c1cccc(Cl)c1 |  |
| 4.16 |  | NC1=NC(c2cccc(F)c2)n2c(nc3ccccc32)N1 (centres undefined) | ΔTm (Escherichia coli [2]): 3.4 °C |
| 4.51 |  | Cc1[nH]c2nc(NCc3ccccc3F)nn2c(=O)c1C | ΔTm (Escherichia coli [2]): 2.5 °C |
| 3.92 |  | Cc1cc(=O)n2nc(N[C@@H](C)c3ccccc3)nc2[nH]1 |  |
| 7.29 | 5.80 | Oc1cccc2[nH]c([C@H]3CCC[C@@H]3c3cccc(Cl)c3)nc12 (relative stereo) | koff [7]: 0.0071 s⁻¹; Ka (Escherichia coli [8]): 1.96 ×10⁵ /M/s; pKd [9]: 7.42 |
| 5.62 | 5.31 | Cc1ccc2oc(N[C@H](C)c3cccc(Cl)c3)nc2n1 |  |
| 6.39 | 6.42 | Cc1cc(N)n2nc(N[C@H](C)c3cccc(Cl)c3)nc2n1 |  |
| 6.60 | 5.34 | Oc1cccc2[nH]c(CCc3cccc(Cl)c3)nc12 | MIC (Escherichia coli [11]): 32 µg/mL (≈ 117 µM) |
| 3.64 | < 3.30 | Oc1cccc2[nH]c(C(F)(F)F)nc12 | ΔTm (Escherichia coli [2]): 8.1 °C |
| 6.00 | 4.96 | CN1C(=O)C[C@H](c2nc3c(O)cccc3[nH]2)[C@H]1c1ccccc1 (relative stereo) |  |
| 4.13 |  | Cc1cc(C)nc(NS(=O)(=O)c2ccc(N)cc2C)n1 | ΔTm (Escherichia coli [2]): 8.7 °C |

| pIC50 [1] | pIC50 [3] | SMILES | other results |
| --- | --- | --- | --- |
| 3.70 |  | COc1ccc2[nH]cc(CCNC(=O)C(C)(C)C)c2c1 | ΔTm (Escherichia coli [2]): 3.1 °C |
| 4.64 | 6.89 | Cc1nc2ccccc2n1Cc1nc2c(O)cccc2[nH]1 |  |
| 5.25 |  | Cc1cc(=O)n2nc(NCc3cccc(Br)c3)nc2[nH]1 |  |
| 6.39 | 5.64 | Cc1ccc2sc(N[C@H](C)c3cccc(Cl)c3)nc2n1 |  |
| 5.92 | 4.82 | C[C@@H](Nc1nc2c(O)cccc2[nH]1)c1cccc(Cl)c1 | Ratio IC50 [12]: 9; pIC50 [13]: 4.96 |
| 4.82 | 5.00 | CNC(=O)CC(Nc1nc2[nH]c(C)cc(=O)n2n1)c1cccc(Cl)c1 (centres undefined) |  |
|  |  | CCCCCNC(=O)CCNC(=O)[C@H](O)C(C)(C)CO | MIC (Escherichia coli [11]): 16 µg/mL (≈ 55.5 µM); MIC (Escherichia coli [14]; ATCC 25922, 20 h): 64 µg/mL (≈ 222 µM); inhibition (Escherichia coli [15]): inactive |
| 6.12 | 5.85 | Cc1cc(=O)n2nc(NC(C)c3cccc(Cl)c3)nc2[nH]1 (racemic) | pIC50 [4]: 5.49; Ratio IC50 (Escherichia coli [5]): 4.2 |
| < 2.60 |  | CC(C)(C)Nc1ccc2nnc(C(F)(F)F)n2n1 | ΔTm (Escherichia coli [2]): 2.5 °C |
| 5.19 |  | Cc1cc(=O)n2nc(N[C@H](C)c3ccccc3)nc2[nH]1 |  |
| 6.70 | 5.96 | Cc1cc(=O)n2nc(NC(CC(=O)O)c3cccc(Cl)c3)nc2[nH]1 (centres undefined) |  |
| 6.26 | 6.18 | Cc1cc(=O)n2nc(N[C@H](CO)c3cccc(Cl)c3)nc2[nH]1 |  |
| 3.46 | 3.57 | C[C@@H](Nc1ccc2nccnc2n1)c1cccc(Cl)c1 |  |
| 5.12 |  | Cc1cc(=O)n2nc(NCc3cccc(Cl)c3)nc2[nH]1 | pIC50 [4]: 4.37; Ratio IC50 (Escherichia coli [5]): 5.7 |
| 4.72 |  | Cc1ccc2c(ncn2Cc2ccccc2)n1 |  |
| 4.43 |  | COc1ccc2c(c1)C(C)(C)C1CC2CN(C(C)=O)C1 (centres undefined) | ΔTm (Escherichia coli [2]): 5.1 °C |
| 6.04 | 4.47 | Oc1cccc2[nH]c(C3CCCN3c3cccc(Cl)c3)nc12 (centres undefined) |  |
| 7.43 | 7.31 | Cc1cc(=O)n2nc(N[C@H](CC#N)c3cccc(Cl)c3)nc2[nH]1 | logD [6]: 1.2; koff [7]: 0.021 s⁻¹; MIC (Escherichia coli [11]): 16 µg/mL (≈ 48.7 µM); Activity (Escherichia coli [14]): inactive; pIC50 [16]: < 3.30; Ka (Escherichia coli [8]): 23 ×10⁵ /M/s; pKd [9]: 8.05; inhibition [17]: inactive; solubility [10]: > 300 µg/mL |
| 4.52 | 3.94 | CC(C)(CO)[C@@H](O)C(=O)NCCc1nc2c(O)cccc2[nH]1 | Activity (Escherichia coli [11]): inactive; Activity (Escherichia coli [14]): inactive |

| pIC50 [1] | pIC50 [3] | SMILES | other results |
| --- | --- | --- | --- |
| 5.62 | 4.96 | COCC[C@@H](Nc1nc2[nH]c(C)cc(=O)n2n1)c1cccc(Cl)c1 |  |
| 5.37 |  | Cc1ccc2c(ncn2Cc2cccc(Cl)c2)n1 |  |
| 3.56 |  | c1ccc(Cn2cnc3ncccc32)cc1 | ΔTm (Escherichia coli [2]): 2.3 °C |
| 6.35 | 6.08 | Cc1cc(=O)n2nc(NC(CC(N)=O)c3cccc(Cl)c3)nc2[nH]1 (centres undefined) |  |
| 6.05 | 5.55 | CCc1cc(=O)n2nc(N[C@H](C)c3cccc(Cl)c3)nc2[nH]1 |  |
| 5.23 | 5.34 | Cc1nc(N)n2nc(N[C@H](C)c3cccc(Cl)c3)nc2n1 |  |
| 6.60 | 5.41 | Cc1cc(=O)n2nc(N[C@H](COC(N)=O)c3cccc(Cl)c3)nc2[nH]1 |  |
| 6.49 | 4.60 | CN1C(=O)CCC(c2nc3c(O)cccc3[nH]2)C1c1ccccc1 (centres undefined) |  |
| 6.72 | 6.21 | Cc1ccc2[nH]c(N[C@H](C)c3cccc(Cl)c3)nc2n1 | logD [6]: 3.3 |
| 7.25 | 7.19 | Cc1ccc2[nH]c(N[C@H](CC#N)c3cccc(Cl)c3)nc2n1 | logD [6]: 3.3; koff [7]: 0.013 s⁻¹; MIC (Escherichia coli [11]): 4 µg/mL (≈ 12.8 µM); Activity (Escherichia coli [14]): inactive; Ka (Escherichia coli [8]): 13 ×10⁵ /M/s; pKd [9]: 8.00 |
| 3.94 | 3.97 | OCc1nc2c(O)cccc2[nH]1 |  |
| 6.00 | 5.57 | Oc1cccc2[nH]c(Cc3noc4ccccc34)nc12 |  |
| 5.60 | 6.31 | COC(=O)CC(Nc1nc2[nH]c(C)cc(=O)n2n1)c1cccc(Cl)c1 (centres undefined) |  |
| 7.29 | 4.60 | O=C(O)c1cccc([C@H]2CCC[C@@H]2c2nc3c(O)cccc3[nH]2)c1 (relative stereo) |  |
| 5.77 | 4.85 | Oc1cccc2[nH]c(COc3cccc(Cl)c3)nc12 |  |
| 4.11 |  | Cc1cc(=O)n2nc(NCc3ccccc3)nc2[nH]1 |  |
| 5.33 | 5.59 | Cc1ccn2nc(N[C@H](C)c3cccc(Cl)c3)nc2n1 |  |
|  |  | CC(C)CNC(=O)[C@@H](Cc1cnc[nH]1)NC(=O)[C@H](CCC(=O)O)NC(=O)OC1c2ccccc2-c2ccccc21 | inhibition (Escherichia coli [18]): Active; inhibition (Escherichia coli [19]): Active; Ratio IC50 (Escherichia coli [20]): 25 |
